Experimental data: PMC10897480, “Molecular details of ruthenium red pore block in TRPV channels” (EMBO Reports, 2024)
Each block holds one molecule with its values, some of them ahead of it.

Experiments:
TRPV2 [1] = biological target: T1, TRPV2 (Rattus norvegicus, UniProt Q9WUD2, E609Q); test: whole-cell patch clamp, inhibition of 2-APB-induced currents; assay type: cell-based
T1 construct: rat TRPV2 expressed in HEK293T cells
T1 sequence (Q9WUD2 1-761 E609Q): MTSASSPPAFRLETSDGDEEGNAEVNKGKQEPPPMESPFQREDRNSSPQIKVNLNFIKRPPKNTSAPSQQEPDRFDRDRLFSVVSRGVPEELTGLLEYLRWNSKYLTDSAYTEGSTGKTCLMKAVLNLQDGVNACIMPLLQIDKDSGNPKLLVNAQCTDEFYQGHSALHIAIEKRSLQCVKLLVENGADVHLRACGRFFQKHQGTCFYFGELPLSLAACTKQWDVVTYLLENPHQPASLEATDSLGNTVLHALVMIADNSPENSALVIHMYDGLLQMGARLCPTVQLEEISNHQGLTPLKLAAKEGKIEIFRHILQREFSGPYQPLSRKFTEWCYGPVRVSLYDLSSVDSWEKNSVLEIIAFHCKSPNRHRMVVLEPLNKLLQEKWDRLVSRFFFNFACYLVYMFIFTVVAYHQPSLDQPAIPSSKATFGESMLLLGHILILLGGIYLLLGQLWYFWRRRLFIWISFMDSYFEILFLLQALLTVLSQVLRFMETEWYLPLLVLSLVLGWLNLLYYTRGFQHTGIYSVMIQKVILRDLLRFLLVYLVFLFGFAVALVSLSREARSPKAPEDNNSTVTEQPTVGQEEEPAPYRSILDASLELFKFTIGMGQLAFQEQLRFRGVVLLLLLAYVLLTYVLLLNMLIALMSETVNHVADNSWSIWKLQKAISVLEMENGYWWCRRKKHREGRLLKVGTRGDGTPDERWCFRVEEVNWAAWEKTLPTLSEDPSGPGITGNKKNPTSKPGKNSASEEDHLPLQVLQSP

TRPV5 [2] = biological target: T2, TRPV5 (Oryctolagus cuniculus, UniProt Q9XSM3); test: cryo-EM structures (8FFQ with PI([…])P2 added, […] Å; 8FFN without, […] Å); IC50 from whole-cell patch clamp in HEK293 cells; assay type: cell-based
T2 construct: wild-type rabbit TRPV5, C-terminal 1D4 tag, in nanodiscs
T2 sequence (Q9XSM3 1-730): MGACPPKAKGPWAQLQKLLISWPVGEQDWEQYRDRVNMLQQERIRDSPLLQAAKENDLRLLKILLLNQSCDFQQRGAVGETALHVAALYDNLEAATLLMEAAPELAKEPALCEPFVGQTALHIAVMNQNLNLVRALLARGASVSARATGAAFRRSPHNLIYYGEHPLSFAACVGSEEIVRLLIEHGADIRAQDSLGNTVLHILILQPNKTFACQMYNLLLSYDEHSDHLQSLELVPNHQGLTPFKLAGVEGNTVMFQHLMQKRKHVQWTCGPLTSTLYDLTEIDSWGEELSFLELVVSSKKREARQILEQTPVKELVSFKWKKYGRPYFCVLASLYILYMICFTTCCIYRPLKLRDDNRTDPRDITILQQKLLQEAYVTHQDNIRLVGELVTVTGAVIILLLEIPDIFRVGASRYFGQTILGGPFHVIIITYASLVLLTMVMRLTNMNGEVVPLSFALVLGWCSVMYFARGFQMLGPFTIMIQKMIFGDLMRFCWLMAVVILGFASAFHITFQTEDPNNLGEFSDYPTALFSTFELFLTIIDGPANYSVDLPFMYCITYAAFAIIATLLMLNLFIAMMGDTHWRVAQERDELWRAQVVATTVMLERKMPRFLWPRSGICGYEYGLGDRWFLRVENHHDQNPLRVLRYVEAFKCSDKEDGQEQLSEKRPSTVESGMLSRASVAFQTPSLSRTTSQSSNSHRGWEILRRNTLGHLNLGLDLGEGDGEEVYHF

TRPV5 [3] = biological target: T3, TRPV5 (Oryctolagus cuniculus, UniProt Q9XSM3, T539A); test: whole-cell patch clamp, % inhibition at […] RR ([…] at […]); assay type: cell-based
T3 construct: rabbit TRPV5 expressed in HEK293T cells
T3 sequence (Q9XSM3 1-730 T539A): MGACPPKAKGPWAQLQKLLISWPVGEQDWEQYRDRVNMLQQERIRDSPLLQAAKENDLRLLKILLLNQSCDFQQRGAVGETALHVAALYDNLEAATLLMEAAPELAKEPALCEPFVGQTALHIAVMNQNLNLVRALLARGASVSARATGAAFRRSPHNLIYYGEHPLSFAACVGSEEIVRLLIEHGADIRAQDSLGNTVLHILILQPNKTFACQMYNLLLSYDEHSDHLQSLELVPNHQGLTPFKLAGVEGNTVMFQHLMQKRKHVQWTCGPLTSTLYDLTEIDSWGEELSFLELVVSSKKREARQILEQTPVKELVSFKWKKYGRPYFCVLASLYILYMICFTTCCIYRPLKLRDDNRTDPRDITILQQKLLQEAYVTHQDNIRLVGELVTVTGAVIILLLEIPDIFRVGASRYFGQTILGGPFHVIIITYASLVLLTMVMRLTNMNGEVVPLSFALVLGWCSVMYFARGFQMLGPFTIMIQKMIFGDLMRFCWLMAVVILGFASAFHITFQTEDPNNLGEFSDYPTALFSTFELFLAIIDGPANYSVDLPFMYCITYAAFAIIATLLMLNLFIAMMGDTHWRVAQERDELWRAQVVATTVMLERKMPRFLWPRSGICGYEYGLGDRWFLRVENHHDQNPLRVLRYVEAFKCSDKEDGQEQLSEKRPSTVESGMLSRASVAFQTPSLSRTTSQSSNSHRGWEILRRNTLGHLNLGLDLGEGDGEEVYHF

TRPV2 [4] = biological target: T4, TRPV2 (Rattus norvegicus, UniProt Q9WUD2); test: cryo-EM structure ([…] Å, with 2-APB); IC50 from whole-cell patch clamp in HEK293T cells; assay type: cell-based
T4 construct: wild-type rat TRPV2, C-terminal 1D4 tag, in nanodiscs
T4 sequence (Q9WUD2 1-761): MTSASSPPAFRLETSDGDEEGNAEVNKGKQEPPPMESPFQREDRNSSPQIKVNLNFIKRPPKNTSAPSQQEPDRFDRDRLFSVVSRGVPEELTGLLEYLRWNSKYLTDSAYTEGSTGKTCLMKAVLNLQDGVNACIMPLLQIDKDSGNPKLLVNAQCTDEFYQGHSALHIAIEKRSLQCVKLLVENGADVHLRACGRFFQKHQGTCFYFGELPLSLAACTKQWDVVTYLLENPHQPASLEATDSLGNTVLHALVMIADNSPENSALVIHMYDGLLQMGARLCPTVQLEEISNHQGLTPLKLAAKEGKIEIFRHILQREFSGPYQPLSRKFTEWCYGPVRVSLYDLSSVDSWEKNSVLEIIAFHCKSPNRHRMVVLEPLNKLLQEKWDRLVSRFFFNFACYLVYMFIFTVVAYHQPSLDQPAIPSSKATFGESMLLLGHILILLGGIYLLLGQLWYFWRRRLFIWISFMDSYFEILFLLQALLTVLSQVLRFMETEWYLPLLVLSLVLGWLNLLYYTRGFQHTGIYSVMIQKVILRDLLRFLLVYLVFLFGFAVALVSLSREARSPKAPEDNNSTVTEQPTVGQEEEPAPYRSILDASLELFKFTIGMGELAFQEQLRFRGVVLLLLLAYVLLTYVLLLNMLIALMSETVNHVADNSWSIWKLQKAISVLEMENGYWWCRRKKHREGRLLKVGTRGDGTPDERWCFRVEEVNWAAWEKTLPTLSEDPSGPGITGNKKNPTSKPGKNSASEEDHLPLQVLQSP

TRPV2 [5] = biological target: T5, TRPV2 (Rattus norvegicus, UniProt Q9WUD2, M607I); test: whole-cell patch clamp, inhibition of 2-APB-induced currents; assay type: cell-based
T5 construct: rat TRPV2 expressed in HEK293T cells
T5 sequence (Q9WUD2 1-761 M607I): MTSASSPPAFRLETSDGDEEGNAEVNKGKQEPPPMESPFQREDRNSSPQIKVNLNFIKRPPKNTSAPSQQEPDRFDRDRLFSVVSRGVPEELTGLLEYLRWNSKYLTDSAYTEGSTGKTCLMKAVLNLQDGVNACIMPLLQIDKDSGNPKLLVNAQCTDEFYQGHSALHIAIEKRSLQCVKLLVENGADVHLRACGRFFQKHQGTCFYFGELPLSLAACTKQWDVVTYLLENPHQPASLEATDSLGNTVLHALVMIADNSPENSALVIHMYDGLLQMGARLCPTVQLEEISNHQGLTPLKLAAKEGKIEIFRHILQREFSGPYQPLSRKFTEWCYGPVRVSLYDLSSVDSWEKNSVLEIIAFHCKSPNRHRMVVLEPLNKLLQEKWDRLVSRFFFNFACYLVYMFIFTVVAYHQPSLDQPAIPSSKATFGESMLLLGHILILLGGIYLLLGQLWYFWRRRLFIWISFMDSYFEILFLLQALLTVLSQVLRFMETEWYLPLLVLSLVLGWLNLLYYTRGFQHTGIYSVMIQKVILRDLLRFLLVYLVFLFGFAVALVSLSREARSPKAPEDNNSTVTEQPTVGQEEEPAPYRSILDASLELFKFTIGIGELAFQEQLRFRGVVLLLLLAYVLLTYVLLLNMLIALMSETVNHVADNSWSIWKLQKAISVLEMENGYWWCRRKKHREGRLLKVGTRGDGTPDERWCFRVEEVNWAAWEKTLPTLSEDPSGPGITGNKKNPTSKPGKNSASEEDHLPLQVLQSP

TRPV2 [6] = biological target: T4, TRPV2; test: cryo-EM structure ([…] Å, with RR); activates whole-cell currents at […]
[7] = biological target: the molecule itself; test: cryo-EM structure; channel tetramer in MSP2N2/soy polar lipid nanodiscs, 20 mM Hepes pH 8.0, 150 mM NaCl, 2 mM TCEP; with 1 mM ruthenium red, with or without activator (1 mM 2-APB for TRPV2; 400 uM diC8-PI(4,5)P2 for TRPV5)

IC50 (TRPV2 [1]): 149 ± 111 µM
IC50 (TRPV5 [2]): 0.0137 ± 0.0044 µM
% inhibition at 10 μM (TRPV5 [3]): 94.5 ± 1.5
IC50 (TRPV2 [4]): 0.159 ± 0.047 µM
IC50 (TRPV2 [5]): 29 ± 5 µM
Molecule: N.N.N.N.N.N.N.N.N.N.N.N.N.N.[Cl-].[Cl-].[Cl-].[Cl-].[Cl-].[Cl-].[O-2].[O-2].[Ru+3].[Ru+3].[Ru+4] [RR, ruthenium red]

Molecule: NCCOB(c1ccccc1)c1ccccc1 [2-APB, 2-aminoethoxydiphenyl borate]
cryo-EM structural observation (TRPV2 [6]): clear three-lobed density for 2-APB coordinated by His521 and Arg539

B1: wild-type rabbit TRPV5 (natural protein)
chain: MGACPPKAKGPWAQLQKLLISWPVGEQDWEQYRDRVNMLQQERIRDSPLLQAAKENDLRLLKILLLNQSCDFQQRGAVGETALHVAALYDNLEAATLLMEAAPELAKEPALCEPFVGQTALHIAVMNQNLNLVRALLARGASVSARATGAAFRRSPHNLIYYGEHPLSFAACVGSEEIVRLLIEHGADIRAQDSLGNTVLHILILQPNKTFACQMYNLLLSYDEHSDHLQSLELVPNHQGLTPFKLAGVEGNTVMFQHLMQKRKHVQWTCGPLTSTLYDLTEIDSWGEELSFLELVVSSKKREARQILEQTPVKELVSFKWKKYGRPYFCVLASLYILYMICFTTCCIYRPLKLRDDNRTDPRDITILQQKLLQEAYVTHQDNIRLVGELVTVTGAVIILLLEIPDIFRVGASRYFGQTILGGPFHVIIITYASLVLLTMVMRLTNMNGEVVPLSFALVLGWCSVMYFARGFQMLGPFTIMIQKMIFGDLMRFCWLMAVVILGFASAFHITFQTEDPNNLGEFSDYPTALFSTFELFLTIIDGPANYSVDLPFMYCITYAAFAIIATLLMLNLFIAMMGDTHWRVAQERDELWRAQVVATTVMLERKMPRFLWPRSGICGYEYGLGDRWFLRVENHHDQNPLRVLRYVEAFKCSDKEDGQEQLSEKRPSTVESGMLSRASVAFQTPSLSRTTSQSSNSHRGWEILRRNTLGHLNLGLDLGEGDGEEVYHF
notes: Transient receptor potential vanilloid 5 (TRPV5), rabbit, wild type; Homotetramer ('TRPV tetramer', C4 symmetry); No step that removes the 1D4 tag is described; also called rbTRPV5; TRPV5RR; source: S. cerevisiae BJ5457, purified (1D4 antibody beads, eluted with 1D4 peptide; reconstituted into MSP2N2 nanodiscs; SEC)
binding result [7]: binds
